Data as given in ChEMBL document CHEMBL3853353, “Identification and optimization of a new series of anti-tubercular quinazolinones” (Bioorg Med Chem Lett, 2016).
≈ marks a conversion by molar mass, not a printed value.

Experiments:
[1] = system: Mycobacterium tuberculosis; test: (§1) Antimycobacterial activity against Mycobacterium tuberculosis H37Rv infected in Balb/c mouse assessed as bacterial burden in lungs at 10 mg/kg, po administered daily through gavage starting on day 2 post infection for 4 days per week for 2 weeks measured on day 12 post infection (reference value: 7.8 log10CFU); assay type: functional, Lung
[2] = system: Mycobacterium tuberculosis; test: Antimycobacterial activity against Mycobacterium tuberculosis H37Rv infected in Balb/c mouse assessed as bacterial burden in lungs at 10 mg/kg, po administered daily through gavage for 2 weeks starting on day 2 post infection measured on day 12 post infection (reference value: 6.4 log10CFU); assay type: functional, Lung
[3] = AUC in Balb/c mouse plasma infected with Mycobacterium tuberculosis H37Rv at 100 mg/kg, po administered through gavage as VitE/PEG200/HPC formulation; assay type: ADME, organism-based
[4] = system: Mycobacterium tuberculosis; test: as §1, with “at 100” for “at 10”, “weeks as VitE/PEG200/HPC formulation” for “weeks”; assay type: functional, Lung
[5] = system: Mycobacterium tuberculosis; test: Antimycobacterial activity against Mycobacterium tuberculosis H37Rv incubated for 5 days by Bactiter-Glo assay; assay type: functional; details: 120 h
[6] = Protein binding in Swiss mouse plasma at 1 to 10 uM after 4 hrs by LC-MS/MS analysis; assay type: ADME, cell-free; details: read-out: PPB (converted)
[7] = system: Mycobacterium tuberculosis; test: as §1, with “weeks as VitE/PEG200/HPC formulation” for “weeks”; assay type: functional, Lung
[8] = system: Mycobacterium tuberculosis; test: Antimycobacterial activity against Mycobacterium tuberculosis H37Rv incubated for 5 days in presence of 25% mouse serum by Bactiter-Glo assay; assay type: functional; details: 120 h
[9] = Ratio of drug level in Mycobacterium tuberculosis H37Rv infected Balb/c mouse lung to plasma at 100 mg/kg, po administered through gavage as VitE/PEG200/HPC formulation; details: other tissue
[10] = system: Mus musculus; test: Toxicity in Balb/c mouse infected with Mycobacterium tuberculosis H37Rv at 300 mg/kg, po administered through gavage as single dose; assay type: organism-based; details: in vivo
[11] = Protein binding in human plasma at 1 to 10 uM after 4 hrs by LC-MS/MS analysis; assay type: ADME, cell-free; details: read-out: PPB (converted)
[12] = system: Mycobacterium tuberculosis; test: Antimycobacterial activity against GFP-tagged Mycobacterium tuberculosis H37Rv infected in mouse RAW264.7 cells incubated for 4 days by Mask blue/Hoechst/FITC staining based fluorescence microscopic analysis; assay type: functional; details: 96 h
[13] = Cytotoxicity against human HepG2 cells assessed as reduction in cell viability after 40 hrs by Celltiter-Glo assay; details: hepg2
[14] = system: Mycobacterium tuberculosis; test: as §1, with “at 30” for “at 10”, “weeks as VitE/PEG200/HPC formulation” for “weeks”; assay type: functional, Lung
[15] = system: Mycobacterium tuberculosis; test: Antimycobacterial activity against Mycobacterium tuberculosis H37Rv incubated for 5 days in presence of 25% human serum by Bactiter-Glo assay; assay type: functional; details: 120 h
[16] = Half life in Balb/c mouse infected with Mycobacterium tuberculosis H37Rv at 100 mg/kg, po administered through gavage as VitE/PEG200/HPC formulation; assay type: ADME, organism-based; details: in vivo

Compound: CO[C@H]1/C=C/O[C@@]2(C)Oc3c(C)c(O)c4c(O)c(c(/C=N/N5CCN(C)CC5)c(O)c4c3C2=O)NC(=O)/C(C)=C\C=C\[C@H](C)[C@H](O)[C@@H](C)[C@@H](O)[C@@H](C)[C@H](OC(C)=O)[C@@H]1C [RIFAMPIN]
- Activity [1]: 5.2
- Activity [2]: 3.9 log10CFU

Compound: Cn1c(NCCc2ccc(-c3ccc(F)cc3)cc2)nc2cc(N)ccc2c1=O
- AUC [3]: 29000 ng·h/mL
- Activity [4]: 7
- MIC80 [5]: 0.01 µM (≈ 0.00388 µg/mL)
- fraction unbound at 4 h [6]: 0.002
- Activity [7]: 7.4
- MIC80 [8]: 0.007 µM
- Kp [9]: 4.5
- Activity [10]: Toxic
- fraction unbound at 4 h [11]: 0.002
- MIC80 [12]: 0.06 µM (≈ 0.0233 µg/mL)
- IC50 at 40 h [13]: > 30 µM
- Activity [14]: 7.1
- MIC80 [15]: 0.01 µM
- half-life [16]: 6 h
